A short description of series [1]: Solubilization for in vitro experiments (water solubility). The class given is physicochemical. On the procedure:
Compound 24 was dissolved in 100% DMSO before use and diluted in saline to a final DMSO concentration of 5% v/v.

Series [2] has as its system rat C6 glioma xenografts. Description: Whole-body NIR fluorescence imaging, rat C6 glioma xenografts. The conditions noted are these: 200 nmol dose, 4 to 72 hours post injection. The class given is in vivo, CD-1 nude male mice. An excerpt: The in Vivo Optical Imaging System (IVISR100/XFO-12, Xenogen Corp., Alameda, Calif., USA) was used to acquire fluorescent images of the RFP-expressing tumors, as well as photosensitizers associated with tissues and organs after their intravenous (i.v.) infusion to the tested animals. The field-of-view was 15 cm. Two images were taken; the first image is black and white, providing a photograph of the animal. The second image is a colored overlay of the emitted photon data, in the present case the NIR fluorescence of the compound (680-720 nm excitation filter and a 780-810 nm emission filter) or bioluminescence (560 nm) as described below. […]
Dynamic fluorescence images were acquired immediately following the injection of a conjugate of the invention and continued for approximately 2 hours. Fluorescence images were also obtained under isoflurane anesthesia for up to 72 hr after initial injection of the conjugate. […]
Dynamic fluorescence images were obtained from CD-1 nude male mice bearing rat C6 glioma xenografts. The fluorescence images were acquired using IVIS system as described in Materials and Methods. […]
Specific binding is defined as one inhibited by the unconjugated sensitizer. […] Fluorescence images of the blocked receptor xenografts with the same exposure time are illustrated in FIG. 19 on the same linear color scale to allow for a qualitative comparison. […]

The subject of series [3] is CT26luc colon cancer. Description: In vivo PDT (VTP) of CT26luc colon cancer. Set-up: species or system CD-1 nude male mice. The note with it: i.v. injected and illuminated after 8 hours. As for the experimental part:
CD-1 nude male mice bearing the different tumor xenografts were anesthetized and 24 (5-24 mg/kg body weight) or 8 (9 mg/kg body weight) were i.v. injected via the tail vein. The tumors were trans-cutaneously illuminated after 3.5, 6, 8, 12 and 24 hours for 5-30 min at light doses of 30-360 J/cm^2. Intensity of illumination: 100-200 mW/cm^2. After treatment, the mice were returned to the cage. The mice were considered cured if tumor free for 90 days after treatment. Mice were euthanized when the tumor diameter reached 15 mm. […] (5) Mixture of 8 and cycloRGDfK: the mice were i.v. injected with mixture of 8 with cycloRGDfK and illuminated after indicated time point. (6) cycloRGDfK alone: the mice were i.v. injected with cycloRGDfK and illuminated after indicated time point. Images were taken at indicated time post PDT.
FIGS. 32A-32F show the therapeutic results of applying 15 mg/kg, 10 min illumination (60 J/cm^2), 8 hours post injection of conjugate 24 to mice bearing CT26luc tumors (bolded protocol in Table 5). 32A—conjugate 24 was i.v. injected 15 mg/kg, 10 min illumination (60 J/cm^2) 8 hours post injection; 32B—overlaid images taken after i.p. injection of luciferin to the mouse described in 32A, using the IVIS system. The first image is black and white, which gives the photograph of the animal. The second image is color overlay of the emitted photon data. […]

The subject of series [4] is H5V endothelial cells. In words: Phototoxicity assay (Neutral Red cell viability after illumination). The class given is cell-based, mouse. The note with it: for LD50: Table 3: 10 μM BSA in medium (90 min, 37° C.).
Protocol: The light source for in vitro studies was home-built 100-W halogen lamp equipped with a high-pass filter (>650 nm, Safelight filter 1A Eastman Kodak Co., Rochester, N.Y., USA) and a 4-cm water filter. The lamp was used to illuminate (20 mW/cm^2/10 min (12 J/cm^2)) the culture plates from the bottom at room temperature in a dark room.
To determine the pigment photodynamic efficacy in vitro under standard conditions, cells were cultured in 96-well plates and preincubated for 15 or 90 min at 37° C. or 4° C., according to the indicated experiment protocol, with 0-25 μM conjugated or non-conjugated photosensitizer in different media conditions (culture medium DMEM/F12; 10% FCS in medium or 10 μM BSA in medium) in the absence or presence of excess free peptide (100 fold up to 1 mM). The cells were washed and illuminated (20 mW/cm^2 for 10 min). Plates were placed back in the culture incubator for 24 h. Cell survival was determined using Neutral Red cell viability assay. Cell survival was calculated as the percent of the dye accumulated in the untreated controls. […] Three kinds of controls were used: (i) light control: cells illuminated in the absence of pigments; (ii) dark control: cells treated with pigments but kept in the dark; and (iii) untreated cells that were kept in the dark.
Following photosensitization and a 24-h incubation period (37° C.), cell survival was determined by Neutral Red (Fluka Chemie, Buchs, Switzerland) accumulation. After subtraction of assay blanks, net optical density (570 nm) was computed as the average value of triplicates determinations. Cell survival was calculated as the percent of the dye accumulated in the untreated controls.
H5V cells were incubated for 90 min at 37° C. with 0-25 μM of conjugate 23 or compound 10 in different media conditions, illuminated and their survival was determined using Neutral Red viability assay as described in Materials and Methods.
Targeted phototoxicity is defined as one inhibited by the free ligand. Thus, further experiments attempted to block phototoxicity by administration of the free cycloRGDfK, which competes for the cellular binding of conjugate 23. H5V cells were incubated for 90 min at 37° C. with 0-25 μM of compound 10 or conjugate 23 in different media (10% FCS in medium or 10 μM BSA in medium) in the absence or presence of free excess cycloRGDfK (100-fold up to 1 mM). The cells were illuminated and cell survival was determined using Neutral Red viability assay, as described above.
In order to test the endocytosis theory and since the endocytic process is time- and temperature-dependent, H5V cells were incubated at 37° C. and 4° C. for 15 min with 0-20 μM of conjugate 23 in medium containing 10% FCS, in the presence or absence of excess cycloRGDfK (100-fold up to 1 mM). Cells were illuminated and their survival was determined as described above.
The phototoxicity of conjugate 24 was determined by monitoring the survival of cultured H5V endothelial cells following PDT. H5V cells were incubated for 2 hours at 37° C. with 0-25 μM conjugate 24 in culture medium DMEM/F12 with 10% FCS. The cells were illuminated and their survival was determined as described above.
Cells were incubated for 90 min at 37° C. in the presence of 0-20 μM conjugate 11 or compound 8 in 10 μM BSA in medium, illuminated and their survival was determined as described above.

Take “Palladium 3^1-oxo-15-methoxycarbonylmethyl-Rhodobacteriochlorin 13^1-(2-sulfoethyl)amide potassium salt [Compound 8, reference compound]”: in series [1], the water solubility entry is listed as “Water-soluble”. Further, in series [2], the whole-body fluorescence distribution result is recorded as “no specific signal could be seen”. Moreover, the “PDT effect of controls” value in series [3] is recorded as “no PDT effect”. Also, the phototoxic effects result in series [4] (90 min, 37° C., 10 μM BSA in medium, 0-20 μM) was “light- and drug concentration-dependent”. Further, the LD50 is 1.8 to 2 µM in series [4] and 2 µM in series [4] (with free peptide excess (RGD-4C 1 mM)).

Values taken from patent publication US10689415B2, “Conjugates of RGD peptides and (bacterio)chlorophyll photosensitizers” (YEDA RESEARCH AND DEVELOPMENT COMPANY LTD., priority 2006, dated 2020).
